From PubChem BioAssay (NCI)
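Briefly, cells in 96-well plates were exposed to five compound concentrations for 48 h, and endpoints were estimated by linear interpolation. TGI: concentration producing complete growth inhibition.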

Assays:
Experiment in all cases: inhibition of tumour cell growth, NCI panel, 48 h
786-0 renal = tested on: 786-0 renal
A498 renal = tested on: A498 renal
A549 NSCLC = tested on: A549 NSCLC
ACHN renal = tested on: ACHN renal
CAKI-1 renal = tested on: CAKI-1 renal
COLO 205 colon = tested on: COLO 205 colon
DLD-1 colon = tested on: DLD-1 colon
DMS 114 small cell lung = tested on: DMS 114 small cell lung
DMS 273 small cell lung = tested on: DMS 273 small cell lung
EKVX NSCLC = tested on: EKVX NSCLC
HCC-2998 colon = tested on: HCC-2998 colon
HCT-116 colon = tested on: HCT-116 colon
HCT-15 colon = tested on: HCT-15 colon
HL-60(TB) leukemia = tested on: HL-60(TB) leukemia
HOP-18 NSCLC = tested on: HOP-18 NSCLC
HOP-62 NSCLC = tested on: HOP-62 NSCLC
HOP-92 NSCLC = tested on: HOP-92 NSCLC
HT29 colon = tested on: HT29 colon
IGROV1 ovarian = tested on: IGROV1 ovarian
KM12 colon = tested on: KM12 colon
KM20L2 colon = tested on: KM20L2 colon
LXFL 529 NSCLC = tested on: LXFL 529 NSCLC
M14 melanoma = tested on: M14 melanoma
M19-MEL melanoma = tested on: M19-MEL melanoma
MALME-3M melanoma = tested on: MALME-3M melanoma
MOLT-4 leukemia = tested on: MOLT-4 leukemia
NCI-H226 lung = tested on: NCI-H226 lung
NCI-H23 lung = tested on: NCI-H23 lung
NCI-H460 lung = tested on: NCI-H460 lung
NCI-H522 lung = tested on: NCI-H522 lung
OVCAR-3 ovarian = tested on: OVCAR-3 ovarian
OVCAR-4 ovarian = tested on: OVCAR-4 ovarian
OVCAR-5 ovarian = tested on: OVCAR-5 ovarian
OVCAR-8 ovarian = tested on: OVCAR-8 ovarian
RXF 393 renal = tested on: RXF 393 renal
SF-268 CNS = tested on: SF-268 CNS
SF-295 CNS = tested on: SF-295 CNS
SF-539 CNS = tested on: SF-539 CNS
SK-MEL-2 melanoma = tested on: SK-MEL-2 melanoma
SK-MEL-28 melanoma = tested on: SK-MEL-28 melanoma
SK-MEL-5 melanoma = tested on: SK-MEL-5 melanoma
SK-OV-3 ovarian = tested on: SK-OV-3 ovarian
SN12C renal = tested on: SN12C renal
SNB-19 CNS = tested on: SNB-19 CNS
SNB-75 CNS = tested on: SNB-75 CNS
SNB-78 CNS = tested on: SNB-78 CNS
SW-620 colon = tested on: SW-620 colon
TK-10 renal = tested on: TK-10 renal
U251 CNS = tested on: U251 CNS
UACC-257 melanoma = tested on: UACC-257 melanoma
UACC-62 melanoma = tested on: UACC-62 melanoma
UO-31 renal = tested on: UO-31 renal
CCRF-CEM leukemia = tested on: CCRF-CEM leukemia
K-562 leukemia = tested on: K-562 leukemia
RPMI-8226 leukemia = tested on: RPMI-8226 leukemia
SR leukemia = tested on: SR leukemia

CC1=C(C(=O)Nc2ccccc2)C(c2ccccc2)C(C(=O)Nc2ccccc2)=C(C)N1
TGI (786-0 renal): > 100 µM | TGI (A498 renal): > 100 µM | TGI (A549 NSCLC): > 100 µM | TGI (ACHN renal): > 100 µM | TGI (CAKI-1 renal): > 100 µM | TGI (COLO 205 colon): > 100 µM | TGI (DLD-1 colon): > 100 µM | TGI (DMS 114 small cell lung): > 100 µM | TGI (DMS 273 small cell lung): > 100 µM | TGI (EKVX NSCLC): > 100 µM | TGI (HCC-2998 colon): > 100 µM | TGI (HCT-116 colon): > 100 µM | TGI (HCT-15 colon): > 100 µM | TGI (HL-60(TB) leukemia): > 100 µM | TGI (HOP-18 NSCLC): > 100 µM | TGI (HOP-62 NSCLC): > 100 µM | TGI (HOP-92 NSCLC): > 100 µM | TGI (HT29 colon): > 100 µM | TGI (IGROV1 ovarian): > 100 µM | TGI (KM12 colon): > 100 µM | TGI (KM20L2 colon): > 100 µM | TGI (LXFL 529 NSCLC): > 100 µM | TGI (M14 melanoma): > 100 µM | TGI (M19-MEL melanoma): > 100 µM | TGI (MALME-3M melanoma): > 100 µM | TGI (MOLT-4 leukemia): > 100 µM | TGI (NCI-H226 lung): > 100 µM | TGI (NCI-H23 lung): > 100 µM | TGI (NCI-H460 lung): > 100 µM | TGI (NCI-H522 lung): > 100 µM | TGI (OVCAR-3 ovarian): > 100 µM | TGI (OVCAR-4 ovarian): > 100 µM | TGI (OVCAR-5 ovarian): > 100 µM | TGI (OVCAR-8 ovarian): > 100 µM | TGI (RXF 393 renal): > 100 µM | TGI (SF-268 CNS): > 100 µM | TGI (SF-295 CNS): > 100 µM | TGI (SF-539 CNS): > 100 µM | TGI (SK-MEL-2 melanoma): > 100 µM | TGI (SK-MEL-28 melanoma): > 100 µM | TGI (SK-MEL-5 melanoma): > 100 µM | TGI (SK-OV-3 ovarian): > 100 µM | TGI (SN12C renal): > 100 µM | TGI (SNB-19 CNS): > 100 µM | TGI (SNB-75 CNS): > 100 µM | TGI (SNB-78 CNS): > 100 µM | TGI (SW-620 colon): > 100 µM | TGI (TK-10 renal): > 100 µM | TGI (U251 CNS): > 100 µM | TGI (UACC-257 melanoma): > 100 µM | TGI (UACC-62 melanoma): > 100 µM | TGI (UO-31 renal): > 100 µM

COc1ccc(C(=O)C(c2ccc(OC)cc2)C2(O)C(=O)Nc3ccc([N+](=O)[O-])cc32)cc1 (stereo not given)
TGI (786-0 renal): > 100 µM | TGI (A498 renal): 31.5 µM | TGI (A549 NSCLC): > 100 µM | TGI (ACHN renal): > 100 µM | TGI (CAKI-1 renal): > 100 µM | TGI (CCRF-CEM leukemia): > 100 µM | TGI (COLO 205 colon): > 100 µM | TGI (DLD-1 colon): > 100 µM | TGI (DMS 114 small cell lung): > 100 µM | TGI (DMS 273 small cell lung): > 100 µM | TGI (EKVX NSCLC): > 100 µM | TGI (HCT-116 colon): > 100 µM | TGI (HCT-15 colon): > 100 µM | TGI (HL-60(TB) leukemia): > 100 µM | TGI (HOP-62 NSCLC): > 100 µM | TGI (HOP-92 NSCLC): > 100 µM | TGI (HT29 colon): > 100 µM | TGI (IGROV1 ovarian): > 100 µM | TGI (K-562 leukemia): > 100 µM | TGI (KM12 colon): > 100 µM | TGI (KM20L2 colon): > 100 µM | TGI (LXFL 529 NSCLC): > 100 µM | TGI (M14 melanoma): > 100 µM | TGI (M19-MEL melanoma): > 100 µM | TGI (MALME-3M melanoma): > 100 µM | TGI (MOLT-4 leukemia): > 100 µM | TGI (NCI-H226 lung): > 100 µM | TGI (NCI-H23 lung): > 100 µM | TGI (NCI-H460 lung): > 100 µM | TGI (NCI-H522 lung): > 100 µM | TGI (OVCAR-3 ovarian): > 100 µM | TGI (OVCAR-4 ovarian): > 100 µM | TGI (OVCAR-5 ovarian): > 100 µM | TGI (OVCAR-8 ovarian): > 100 µM | TGI (RPMI-8226 leukemia): > 100 µM | TGI (RXF 393 renal): > 100 µM | TGI (SF-268 CNS): > 100 µM | TGI (SF-295 CNS): > 100 µM | TGI (SF-539 CNS): 24 µM | TGI (SK-MEL-2 melanoma): > 100 µM | TGI (SK-MEL-28 melanoma): > 100 µM | TGI (SK-OV-3 ovarian): > 100 µM | TGI (SN12C renal): 24.4 µM | TGI (SNB-19 CNS): > 100 µM | TGI (SNB-75 CNS): > 100 µM | TGI (SNB-78 CNS): > 100 µM | TGI (SR leukemia): > 100 µM | TGI (SW-620 colon): > 100 µM | TGI (TK-10 renal): > 100 µM | TGI (U251 CNS): > 100 µM | TGI (UACC-257 melanoma): > 100 µM | TGI (UACC-62 melanoma): > 100 µM | TGI (UO-31 renal): > 100 µM
